Data from US20200190592A1, “PME-1 AS A BIOMARKER TO PREDICT AND DIAGNOSE AN INCREASED RISK OF ENDOMETRIAL CANCER AND GENE SILENCING OF PME-1 TO INHIBIT EPITHELIAL TO MESENCHYMAL TRANSITION” (Medical Diagnostic Laboratories, L.L.C., priority 2018, published 2020).
“Also recorded” adds a separate entry of the source.

Key:
Format in all cases: cell-based, human
PME-1 = experiment: Western blot of PME-1 protein in RL95-2 cells; conditions: GAPDH loading control, listed as shRNA #2
Description: We prepared RL95-2 cell lines expressing empty vector (control), over-expressing PME-1 (+PME-1), or expressing shRNA against PPME1, the gene that codes for PME-1 protein (−PME-1). Using these cells, we confirmed the appropriate level of PME-1 via real-time RT-PCR (data not shown) and Western blot analysis (FIG. 8). GAPDH was used as a loading control.
We also prepared two different shRNAs targeted against PME-1.
Lentivirus was produced in HEK293T cell lines with pLKO shRN vectors (Thermo Scientific, cat. no. RHS4533; Waltham, Mass.) and pCDH-CuO-GFP-Puro vectors (System Biosciences, Inc., cat. no. QM513B-1; Mountain View, Calif.) with pPACKH1 packaging plasmid (System Biosciences, Inc., cat, no. LV050A-1). shRNA sequences are in the Table 2. Lentivirus was collected and concentrated with Peg-IT concentrating solution (System Biosciences, Inc.). 5×10^6 ifu/ml lentivirus was added to cell cultures with growth media and 8 μg/ml PolyBrene (Sigma Aldrich). Media was changed to full growth media after 24 hrs and to selection media containing antibiotic after 48 hrs (5 μg/ml puromycin) (Invivogen) for 10 days.
15 μg of protein was used for western analysis. […]

DcR2 = experiment: Senescence assay (Western for DcR2); conditions: RL95-2 lysates, GAPDH loading control
Method: We next analyzed cell lysates taken from RL95-2 cells that expressed either empty vector (Control), overexpressed PME-1 (+PME-1) or expressed shRNA against PME-1 (−PME-1) for DcR2 protein.
(§1) 15 μg of protein was used for western analysis. PME-1 antibody (Santa Cruz) and COXIV (Cell Signaling Technologies) were used for detection of proteins and the blots were developed using chemiluminescence (Pierce ECL Western Blotting Substrate—Thermo Scientific) on the GE ImageQuant LAS 4000. For analysis of Akt, ERK, and β-catenin signaling in tissue culture, western analyses were completed as follows. RL95-2 cells stably infected with lentivirus expressing constructs were selected with puromycin (Invivogen). The cells were incubated with either 50 μM Akt inhibitor (LY 294002, Cell Signaling Technologies) or 40 μM ERK inhibitor (V0126, Cell Signaling Technologies) for 1-2 hours at 37° C. 1.5× Laemelli buffer (0.5 M Tris pH6.8, […], 10% sodium dodecyl sulfate, 100 mM EDTA) was used to prepare cell lysates. 20 μg of protein was used for western analysis. Primary antibodies used were: P-Akt (Ser473), P-Akt (Thr308), pan-Akt, P-ERK (Thr202/204), total ERK (Cell Signaling Technologies), PME-1 (Santa Cruz), phospho-β-catenin (Ser45, Cell Signaling Technologies), phospho-β-catenin (Ser33/37/Thr41, Cell Signaling Technologies), β-catenin (Abcam), DcR2 (Abcam), and GAPDH (Abcam). […]

phospho-Akt = experiment: Western analysis of Akt phosphorylation in RL95-2 cells; conditions: PME-1 knocked down
Method: We observed a similar trend for the Akt signaling pathway. There was an increase in phosphorylation of Akt on threonine 308 (T308) when PME-1 was over-expressed compared to control. There was a decrease in phosphorylation of Akt when PME-1 was knocked down (FIG. 18B). PME-1 over-expression specifically increases the phosphorylation of Akt on T308, but not serine 473 (S473). Importantly, when cells were incubated with upstream inhibitors of Akt phosphorylation (LY294002), there was a decrease in the phospho-forms (FIGS. 18A and 18B), as expected.
as §1, with “lysates.” for “lysates. 20 μg of protein was used for western analysis. Primary antibodies used were: P-Akt (Ser473), P-Akt (Thr308), pan-Akt, P-ERK (Thr202/204), total ERK (Cell Signaling Technologies), PME-1 (Santa Cruz), phospho-β-catenin (Ser45, Cell Signaling Technologies), phospho-β-catenin (Ser33/37/Thr41, Cell Signaling Technologies), β-catenin (Abcam), DcR2 (Abcam), and GAPDH (Abcam).”

β-catenin = experiment: Western analysis of β-catenin in RL95-2 cells
Description: We performed Western blot analysis in RL95-2 cells that were expressing empty vector (Control), over-expressing PME-1 (+PME-1) or expressing shRNA against PME-1 (−PME-1) to examine the protein stability of β-catenin (FIG. 19A). We observed a decrease in total β-catenin protein in cells that were over-expressing PME-1. This observation is correlated with the predicted ubiquitylation of β-catenin and its degradation. Conversely, a depletion of PME-1 led to stabilization of total β-catenin (FIG. 19A).
In another series of study, we performed a similar assay in which cells were treated with 10 μM MG-132 prior to protein extraction. MG-132 is a proteasome inhibitor and therefore allows for the accumulation of phosphorylated β-catenin, which is normally quickly degraded, to be detected by western analysis.
15 μg of protein was used for western analysis. PME-1 antibody (Santa Cruz) and COXIV (Cell Signaling Technologies) were used for detection of proteins and the blots were developed using chemiluminescence (Pierce ECL Western Blotting Substrate—Thermo Scientific) on the GE ImageQuant LAS 4000. For analysis of Akt, ERK, and β-catenin signaling in tissue culture, western analyses were completed as follows. RL95-2 cells stably infected with lentivirus expressing constructs were selected with puromycin (Invivogen). […]

PPME1 = experiment: qRT-PCR of PPME1 (PME-1) expression in RL95-2 cells; conditions: RL95-2, normalized to 18S, vs shSCR
Method: In this study, we transfected RL95-2 cells to express empty vector (Control), over-expressing PME-1 (+PME-1) or expressing shRNA against PME-1 (−PME-1) followed by serum starvation for 24 hours. Afterwards, either vehicle or TGF-β treatment was performed at the end of the 24 hours. TGF-β was used to induce cells to initiate the EMT program. Gene expression analysis was conducted using quantitative real-time PCR.
(§2) Using RL95-2 endometrial cancer cells, we overexpressed PME-1 (FIG. 21A) or depleted PME-1 with shRNA (FIG. 21B) and confirmed that PME-1 was appropriately expressed.
(§3) Total RNA was extracted with Qiagen RNAEasy kit from RL95-2 cells. cDNA was synthesized using 500 ng-1 μg of RNA and SuperScript VILO c-DNA mix (Life Technologies). Taqman probes and PCR-mix were purchased from Life Technologies. All samples were run in triplicates. Results are representative of three independent experiments in which genes of interest were normalized to the house-keeping gene, 18S or GAPDH, where fold-change was calculated using the ddCt method.

SFRP1 = experiment: qRT-PCR of SFRP1 expression in RL95-2 cells; conditions: RL95-2, normalized to 18S
Method: as §2, §3

**Q.** What does the source list for “shPPME1 no. 2: shRNA targeting PPME1, SEQ ID NO: 2: GCAGCGATTATTAGTAGAGTT, bp 289-309; used for all subsequent experiments (guide GCAGCGATTATTAGTAGAGTT; listed as Homo sapiens)”?
**A.** PME-1 levels via Western blot analysis (PME-1): significantly decreased; also recorded: best depletion; senescent marker protein DcR2 (DcR2): increase; phosphorylation of Akt (phospho-Akt): decrease; total β-catenin (β-catenin; absence of MG-132): stabilization; phosphorylated β-catenin (β-catenin; cells treated with 10 μM MG-132, compared to control cells): did not lead to an increase; PME-1 knocked down (PPME1): > 50%; SFRP1 expression (SFRP1): significantly increased; SFRP1 expression (SFRP1; listed as shRNA (SEQ ID NO: 2)): significant increase
